Source: patent US7335756B2, “Retinoic acid metabolizing cytochrome P450” (Cytochroma Inc., priority 2001, dated 2008)

Experiments:
[1] = biological target: T1, P450RAI-3 (Homo sapiens, UniProt Q6V0L0, F447L); experiment: ATRA and 9-cis-RA binding assay, Sf9-Bac-P450RAI-3 insect microsomes; details: Kd, substrate binding to P450RAI-3, insect microsomes; Table 4 prints no unit, nM
T1 sequence (Q6V0L0 1-522 F447L): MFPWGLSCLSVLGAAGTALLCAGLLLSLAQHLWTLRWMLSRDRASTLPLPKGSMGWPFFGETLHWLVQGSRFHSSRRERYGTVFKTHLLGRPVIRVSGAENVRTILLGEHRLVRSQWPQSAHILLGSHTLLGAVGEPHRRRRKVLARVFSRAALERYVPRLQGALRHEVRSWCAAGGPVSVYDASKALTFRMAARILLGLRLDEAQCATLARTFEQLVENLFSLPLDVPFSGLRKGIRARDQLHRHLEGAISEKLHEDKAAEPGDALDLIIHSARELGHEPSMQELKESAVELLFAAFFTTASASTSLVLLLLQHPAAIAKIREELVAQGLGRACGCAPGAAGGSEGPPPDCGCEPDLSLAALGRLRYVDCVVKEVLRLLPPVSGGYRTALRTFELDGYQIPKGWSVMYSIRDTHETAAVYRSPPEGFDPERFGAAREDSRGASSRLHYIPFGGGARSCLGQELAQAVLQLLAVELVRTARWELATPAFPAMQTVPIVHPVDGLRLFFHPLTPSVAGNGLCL

[2] = biological target: T2, CYP26-B (Homo sapiens, UniProt Q9NR63); experiment: [3H]-RA-metabolism inhibition, transient Cos-CYP26-B cell-based assay; details: at lower concentrations
T2 sequence (Q9NR63 1-512): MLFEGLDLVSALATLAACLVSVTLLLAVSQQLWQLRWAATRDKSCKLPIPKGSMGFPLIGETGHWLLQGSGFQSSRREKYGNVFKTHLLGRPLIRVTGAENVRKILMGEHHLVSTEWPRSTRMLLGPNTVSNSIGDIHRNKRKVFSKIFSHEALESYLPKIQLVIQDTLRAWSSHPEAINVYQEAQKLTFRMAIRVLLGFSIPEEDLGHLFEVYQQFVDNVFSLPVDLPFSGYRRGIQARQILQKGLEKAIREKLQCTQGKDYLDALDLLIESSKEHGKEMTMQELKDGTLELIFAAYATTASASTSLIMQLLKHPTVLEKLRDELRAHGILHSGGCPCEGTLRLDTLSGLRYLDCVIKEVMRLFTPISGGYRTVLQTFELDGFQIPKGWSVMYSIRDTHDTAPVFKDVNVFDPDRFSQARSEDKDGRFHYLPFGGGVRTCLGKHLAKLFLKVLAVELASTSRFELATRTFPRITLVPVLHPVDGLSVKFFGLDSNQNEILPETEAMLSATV

[3] = biological target: T1, P450RAI-3; experiment: RA-metabolism cell based assay in P450RAI-3-infected Sf9 cells; design: expressed in transfected cells; details: 2 nM [3H]-RA
Procedure: Recombinant baculovirus expressing either P450RAI-3 or CYP26B (Bac-P450RAI-3 or Bac-CYP26B or CYP26B) was prepared and titrated by end-point dilution and infection of Sf9 cells in 96-well format. Baculovirus expressing vector was co-transfected into Sf9-insect cells. Infected cells were assessed for RA-metabolism after 72 hours post transfection using RA-metabolism cell based assay as follows: the RA-metabolism reaction was started by adding 50 μl of [^3H]-RA solution (20000 cpm, 2 nM final concentration) using an automatic repeating-pipette.
Cells were incubated for 3 hours. The reaction was stopped by adding 5 μl of 10% acetic acid. Organic and aqueous soluble radio-labelled metabolites were extracted using the Bligh-Dyer procedure.

[4] = biological target: T1, P450RAI-3; experiment: [3H]-RA-metabolism inhibition (substrate competition) in P450RAI-3 stable transfected Hela cells; format: cell-based; design: expressed in transfected cells; details: 2 nM [3H]-RA, read-out: ID50, competition for P450RAI-3 [3H]-RA metabolism
Procedure: The purpose of these experiments is to determine the specific substrates for P450RAI-3. […] The RA metabolism reaction was started by the addition of 50 ul of [^3H]-RA solution (20000 cpm, 2 nM final concentration). Cells were incubated for 3 hours in a humidified CO2 incubator at 37 degrees Celsius. The reaction was stopped by the addition of 5 ul of 10% acetic acid. Organic and aqueous soluble radio-labelled metabolites were extracted using the Bligh-Dyer procedure.

[5] = biological target: T1, P450RAI-3; experiment: [3H]-RA-metabolism inhibition in Sf9-Bac-P450RAI-3 insect microsomes; format: biochemical; details: 2 nM [3H]-RA, NADPH, 1 hour, read-out: ID50 (nM) Sf9-P450RAI-3
Procedure: Microsomes from P450RAI-3 and CYP26B infected Sf-9 cells were made as follows: exponentially growing cells were harvested, washed with ice-cold PBS, counted then homogenized and sonicated in lysis buffer containing protease inhibitors cocktail (10^8 cells par 5 ml lyses buffer). Since P450RAI-3 is a microsomal cytochrome, it preferably uses NADPH cytochromic P450 reductase and a flavoprotein for activity. The microsomes were isolated by differential centrifugations (10 min at 800×g, than 10 min at 10,000×g and finally the postmitichondirial supernatant was centrifuged at 100,000×g for 60 min using ultracentrifuge (Beckman). The microsomal pellet was isolated and homogenized gently in the storage buffer containing protease inhibitors cocktail. Protein concentration in the microsomal preparation was determined using a […] reaction assay kit with BSA as standards (Pierce). The absorbance at 562 nm of standards (BSA at 1, 0.5, 0.25, 0.125, and 0.0625 mg/ml) and 3 dilutions of microsomes samples (⅕, 1/10 and 1/20) was determined using an automatic microplate reader (μQuant, BioTek instruments Inc.). The protein concentration directly calculated by the software (KCJunior). […] Microsomes were assessed for P450 content by carbon monoxide assay and total P450 content was determined at 3 nmol/ml. […]

## CC1=C(/C=C/C(C)=C/C=C/C(C)=C/C(=O)O)C(C)(C)CCC1 [ATRA, all-trans-retinoic-acid]
[1]
  Kd: 45 nM
[2]
  competition / inhibition of CYP26-B: competed
[3]
  metabolism by P450RAI-3-infected Sf9-cells: metabolized ATRA and converted it to water-soluble metabolites
[4]
  IC50: 300 nM
[5]
  IC50: 20 nM
